# Test results published in ChEMBL document CHEMBL5344409, “Discovery of pan-IAP degraders via a CRBN recruiting mechanism” (2023).
# Active and inactive are the calls of the source. No cut-off for these calls is given here.
# Tests used:
# [1] = target: Protein cereblon-IAP (Homo sapiens) (UniProt P98170+Q13489+Q13490+Q96SW2); experiment: PROTAC activity at CRBN/IAP in human MCF7 cells assessed as inhibition of TNFalpha-induced NFkappaB activation by measuring decrease in IkBalpha phosphorylation at 0.1 uM pretreated for 2 hrs followed by stimulation with TNF-alpha for 3 mins by western blot analysis; assay type: cell-based; conditions: time 123.0 min
# [2] = target: Baculoviral IAP repeat-containing protein 2 (Homo sapiens) (UniProt Q13490); experiment: Induction of cIAP1 degradation in human MCF7 cells at 0.1 uM measured within 1 hr by western blot analysis; assay type: cell-based
# [3] = target: T1, Protein cereblon/E3 ubiquitin-protein ligase XIAP (Homo sapiens) (UniProt P98170+Q96SW2); experiment: Binding affinity to CRBN/XIAP in human HEK293T cells assessed as ternary complex formation at 1 uM measured after 6 hrs by immunoprecipitation analysis; assay type: cell-based
# MCF7 [4] = experiment: Cytotoxicity against human MCF7 cells assessed as inhibition of cell growth measured after 72 hrs by CellTiter-Glo luminescent assay; assay type: functional
# [5] = target: Protein cereblon/Baculoviral IAP repeat-containing protein 2 (Homo sapiens) (UniProt Q13490+Q96SW2); experiment: Binding affinity to CRBN/cIAP1 in human HEK293T cells assessed as ternary complex formation at 1 uM measured after 6 hrs by immunoprecipitation analysis; assay type: cell-based
# [6] = target: T2, Protein cereblon/Baculoviral IAP repeat-containing protein 3 (Homo sapiens) (UniProt Q13489+Q96SW2); experiment: PROTAC activity at CRBN/cIAP2 in human MCF7 cells assessed as induction of cIAP2 degradation at 0.1 uM measured within 1 hr by western blot analysis; assay type: cell-based
# [7] = target: Baculoviral IAP repeat-containing protein 2 (Homo sapiens) (UniProt Q13490); experiment: Induction of cIAP1 degradation in human MCF7 cells at 1 uM measured after 6 hrs in presence of proteasome inhibitor, MG132 by western blot analysis; assay type: cell-based
# [8] = target: Baculoviral IAP repeat-containing protein 2 (Homo sapiens) (UniProt Q13490); experiment: Induction of cIAP1 degradation in human MCF7 cells assessed as protein abundance at 1 uM measured after 4 hrs by TMT-labeling based LC-MS/MS analysis; assay type: cell-based
# [9] = target: T2, Protein cereblon/Baculoviral IAP repeat-containing protein 3 (Homo sapiens); experiment: PROTAC activity at CRBN/cIAP2 in human MCF7 cells assessed as induction of cIAP2 degradation at 1 uM measured after 18 hrs by western blot analysis; assay type: cell-based
# MCF7 [10] = experiment: Induction of apoptosis in human MCF7 cells assessed as increase in caspase 7 cleavage at 0.1 uM measured after 18 hrs by western blot analysis; assay type: functional, cell-based
# [11] = target: Baculoviral IAP repeat-containing protein 2 (Homo sapiens) (UniProt Q13490); experiment: Induction of cIAP1 degradation in human MCF7 cells at 0.1 to 10 uM measured after 18 hrs by western blot analysis; assay type: cell-based; conditions: dose 0.1-10 µM
# [12] = target: T1, Protein cereblon/E3 ubiquitin-protein ligase XIAP (Homo sapiens); experiment: PROTAC activity at CRBN/XIAP in human MCF7 cells assessed as induction of XIAP degradation at 1 uM measured after 18 hrs by western blot analysis; assay type: cell-based
# MCF7 [13] = experiment: Inhibition of TNFalpha-induced cytokine secretion in human MCF7 cells assessed as decrease in TNFalpha level at 0.1 uM measured after 4 hrs by ELISA; assay type: functional, cell-based
# MCF7 [14] = experiment: Induction of apoptosis in human MCF7 cells assessed as increase in PARP cleavage at 1 uM measured after 6 hrs in presence of TNF-alpha by western blot analysis; assay type: functional, cell-based
# [15] = target: T2, Protein cereblon/Baculoviral IAP repeat-containing protein 3 (Homo sapiens); experiment: PROTAC activity at CRBN/cIAP2 in human MCF7 cells assessed as induction of cIAP2 degradation at 0.1 uM measured after 18 hrs by western blot analysis; assay type: cell-based
# T2 sequence (Q13489 whole entry, looked up): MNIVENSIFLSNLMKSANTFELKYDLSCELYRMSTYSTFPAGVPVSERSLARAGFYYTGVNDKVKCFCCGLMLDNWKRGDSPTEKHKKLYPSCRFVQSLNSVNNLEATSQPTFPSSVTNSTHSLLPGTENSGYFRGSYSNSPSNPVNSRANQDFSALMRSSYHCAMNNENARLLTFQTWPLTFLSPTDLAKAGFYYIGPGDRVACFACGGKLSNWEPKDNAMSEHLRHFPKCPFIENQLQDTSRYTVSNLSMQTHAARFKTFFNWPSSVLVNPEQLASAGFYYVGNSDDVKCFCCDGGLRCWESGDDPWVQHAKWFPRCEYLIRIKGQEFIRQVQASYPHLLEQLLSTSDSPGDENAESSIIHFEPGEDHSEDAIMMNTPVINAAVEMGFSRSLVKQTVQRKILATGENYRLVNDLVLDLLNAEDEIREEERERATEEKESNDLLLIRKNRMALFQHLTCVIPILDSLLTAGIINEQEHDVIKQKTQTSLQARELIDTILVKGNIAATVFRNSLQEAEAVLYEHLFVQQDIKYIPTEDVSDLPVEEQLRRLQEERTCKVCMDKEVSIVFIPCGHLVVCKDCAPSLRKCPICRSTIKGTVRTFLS
# T2 sequence (Q96SW2 whole entry, looked up): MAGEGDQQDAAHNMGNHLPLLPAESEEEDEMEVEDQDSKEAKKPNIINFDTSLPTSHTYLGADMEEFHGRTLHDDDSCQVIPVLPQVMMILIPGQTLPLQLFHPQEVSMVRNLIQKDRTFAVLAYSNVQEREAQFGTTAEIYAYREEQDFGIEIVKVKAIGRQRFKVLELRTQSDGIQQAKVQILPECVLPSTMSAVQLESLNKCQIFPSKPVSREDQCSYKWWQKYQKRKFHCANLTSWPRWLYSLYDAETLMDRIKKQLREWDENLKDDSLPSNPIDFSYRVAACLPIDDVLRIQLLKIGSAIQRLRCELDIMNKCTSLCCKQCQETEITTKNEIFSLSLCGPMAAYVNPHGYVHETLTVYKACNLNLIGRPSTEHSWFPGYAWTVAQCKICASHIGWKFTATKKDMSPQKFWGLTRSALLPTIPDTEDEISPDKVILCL
# Sequence of Baculoviral IAP repeat-containing protein 2 (Homo sapiens) (Q13490 whole entry): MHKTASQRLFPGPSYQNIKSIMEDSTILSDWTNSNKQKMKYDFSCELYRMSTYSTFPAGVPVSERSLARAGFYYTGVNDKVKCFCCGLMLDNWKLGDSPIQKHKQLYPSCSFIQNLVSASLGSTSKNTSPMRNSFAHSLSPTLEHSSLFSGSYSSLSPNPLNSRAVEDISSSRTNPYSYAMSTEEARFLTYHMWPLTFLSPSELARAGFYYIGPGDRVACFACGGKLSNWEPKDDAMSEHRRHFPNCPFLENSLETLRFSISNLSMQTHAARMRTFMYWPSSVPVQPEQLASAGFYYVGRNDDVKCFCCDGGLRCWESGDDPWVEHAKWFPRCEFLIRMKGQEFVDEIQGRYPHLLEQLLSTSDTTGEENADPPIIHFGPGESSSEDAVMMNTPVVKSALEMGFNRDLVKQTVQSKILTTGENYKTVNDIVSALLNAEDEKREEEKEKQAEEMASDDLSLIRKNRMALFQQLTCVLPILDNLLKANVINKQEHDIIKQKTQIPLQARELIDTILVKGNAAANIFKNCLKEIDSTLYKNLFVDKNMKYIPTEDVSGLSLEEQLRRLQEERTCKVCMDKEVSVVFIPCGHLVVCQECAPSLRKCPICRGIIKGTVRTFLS
# T1 sequence (P98170 whole entry, looked up): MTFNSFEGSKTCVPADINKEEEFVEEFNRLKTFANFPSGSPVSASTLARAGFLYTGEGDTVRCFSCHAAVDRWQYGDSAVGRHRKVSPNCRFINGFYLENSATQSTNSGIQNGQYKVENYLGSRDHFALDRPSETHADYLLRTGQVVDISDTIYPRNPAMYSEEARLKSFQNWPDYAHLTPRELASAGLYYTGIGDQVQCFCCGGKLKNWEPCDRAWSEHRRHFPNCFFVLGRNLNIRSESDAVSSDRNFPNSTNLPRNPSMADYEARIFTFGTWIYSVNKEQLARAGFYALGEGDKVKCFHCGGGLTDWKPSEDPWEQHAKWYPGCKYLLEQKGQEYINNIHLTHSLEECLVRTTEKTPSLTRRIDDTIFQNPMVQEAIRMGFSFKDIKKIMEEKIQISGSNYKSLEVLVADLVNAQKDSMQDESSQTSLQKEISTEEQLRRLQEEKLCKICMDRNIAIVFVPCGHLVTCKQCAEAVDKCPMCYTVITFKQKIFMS
# T1 sequence (Q96SW2 whole entry, looked up): as the sequence (Q96SW2 whole entry, looked up) above
# Sequence of Protein cereblon/Baculoviral IAP repeat-containing protein 2 (Homo sapiens) (Q13490 whole entry, looked up): as the sequence (Q13490 whole entry) above
# Sequence of Protein cereblon/Baculoviral IAP repeat-containing protein 2 (Homo sapiens) (Q96SW2 whole entry, looked up): as the sequence (Q96SW2 whole entry, looked up) above
# Sequence of Protein cereblon-IAP (Homo sapiens) (P98170 whole entry, looked up): as the sequence (P98170 whole entry, looked up) above
# Sequence of Protein cereblon-IAP (Homo sapiens) (Q13489 whole entry, looked up): as the sequence (Q13489 whole entry, looked up) above
# Sequence of Protein cereblon-IAP (Homo sapiens) (Q13490 whole entry, looked up): as the sequence (Q13490 whole entry) above
# Sequence of Protein cereblon-IAP (Homo sapiens) (Q96SW2 whole entry, looked up): as the sequence (Q96SW2 whole entry, looked up) above
smiles,measurement,setting,value
CN[C@@H](C)C(=O)N[C@H](C(=O)N1Cc2cc(OCCCCCCCCNC(=O)C3CN(c4ccc5c(c4)C(=O)N(C4CCC(=O)NC4=O)C5=O)C3)ccc2C[C@H]1C(=O)N[C@@H]1CCCc2ccccc21)C(C)(C)C (stereo not given in full),Activity,[1],Active
same,Activity,[2],> 90%
same,Activity,[3],Active
same,GI50,MCF7 [4],396 nM
same,Activity,[5],inactive
same,Activity,[6],> 90%
same,Activity,[7],inactive
same,fold change (FC),[8],> 2
same,Activity,[9],97%
same,Activity,MCF7 [10],Active
same,Activity,[11],Active
same,Activity,[12],99%
same,inhibition,MCF7 [13],Active
same,Activity,MCF7 [14],Active
same,Activity,[15],90%
